Assay results taken from ChEMBL document CHEMBL1131832, “Synthesis and pharmacological activity of diarylindole derivatives. Cytotoxic agents based on combretastatins” (Bioorg Med Chem Lett, 1999).

Experiments:
A549 = assay: Antineoplastic activity against A-549 (human lung carcinoma) cell line.; assay type: functional, cell-based
SK-MEL-28 = assay: Antineoplastic activity against SK-MEL-28 (human melanoma) cell line.; assay type: functional, cell-based
P388 = assay: Antineoplastic activity against P-388 (murine lymphoid neoplasm) cell line.; assay type: functional, cell-based; details: Mus musculus
HT-29 = assay: Antineoplastic activity against HT-29 (human colon adenocarcinoma) cell line.; assay type: functional, cell-based
SNB-19 = assay: Compound was evaluated for cytostatic activity against SNB-19 CNS cancer cell line; assay type: functional; details: Homo sapiens
SF-539 = assay: Compound was evaluated for cytostatic activity against SF-539 CNS cancer cell line; assay type: functional; details: Homo sapiens
HL-60 = assay: Compound was evaluated for cytostatic activity against the HL-60(TB) leukemia cell line; assay type: functional; details: Homo sapiens
HCT-116 = assay: Compound was evaluated for cytostatic activity against […] colon cancer cell line; assay type: functional; details: Homo sapiens
SF-295 = assay: Compound was evaluated for cytostatic activity against SF-295 CNS cancer cell line; assay type: functional; details: Homo sapiens
COLO 205 = assay: Compound was evaluated for cytostatic activity against COLO 205 colon cancer cell line; assay type: functional; details: Homo sapiens
RPMI-8226 = assay: Compound was evaluated for cytostatic activity against the RPMI-8226 leukemia cell line; assay type: functional; details: Homo sapiens
OVCAR-3 = assay: Compound was evaluated for cytostatic activity against OVCAR-3 ovarian cancer cell line; assay type: functional; details: Homo sapiens
SK-MEL-5 = assay: Compound was evaluated for cytostatic activity against SK-MEL-5 melanoma cell line; assay type: functional; details: Homo sapiens
NCI-H522 = assay: Compound was evaluated for cytostatic activity against NCI-H522 non-small cell lung cancer cell line; assay type: functional; details: Homo sapiens
[1] = read-out: Log LC50 (the source's name) (converted)

Compound | IC50 (A549) [µM] | IC50 (SK-MEL-28) [µM] | IC50 (P388) [µM] | IC50 (HT-29) [µM] | also measured
COc1cc(CC(=O)c2ccoc2)cc(OC)c1OC | 7.24 | 7.24 | 7.24 | 7.24 | –
COc1ccc2[nH]c(-c3ccc4c(c3)OCO4)c(-c3cc(OC)c(OC)c(OC)c3)c2c1 | 6.31 | 6.31 | 2.29 | 6.31 | –
COc1cc(CCc2ccc3c(c2)OCO3)cc(OC)c1OC | – | 6.31 | – | – | –
COc1ccc2[nH]c(-c3ccoc3)c(-c3cc(OC)c(OC)c(OC)c3)c2c1 | 3.24 | 3.24 | 3.24 | 3.24 | –
COc1ccc2[nH]c(-c3ccc(C)o3)c(-c3cc(OC)c(OC)c(OC)c3)c2c1 | 5.13 | 5.13 | 5.13 | 6.46 | –
COc1cc(CC(O)c2ccoc2)cc(OC)c1OC (stereo not given) | 72.4 | 72.4 | 36.3 | 72.4 | –
COc1ccc2[nH]c(-c3ccco3)c(-c3cc(OC)c(OC)c(OC)c3)c2c1 | 1.32 | – | 0.708 | 1.32 | GI50 (SNB-19): 0.0229 µM; CC50 (SNB-19; [1]): 0.977 µM; GI50 (SF-539): 0.117 µM; CC50 (SF-539; [1]): 0.933 µM; GI50 (HL-60): 0.0513 µM; CC50 (HL-60; [1]): > 100 µM; GI50 (HCT-116): 0.138 µM; CC50 (HCT-116; [1]): 2.51 µM; GI50 (SF-295): 0.138 µM; CC50 (SF-295; [1]): 23.4 µM; GI50 (COLO 205): 0.186 µM; CC50 (COLO 205; [1]): 0.676 µM; GI50 (RPMI-8226): 0.0912 µM; CC50 (RPMI-8226; [1]): 75.9 µM; GI50 (OVCAR-3): 0.17 µM; CC50 (OVCAR-3; [1]): 7.24 µM; GI50 (SK-MEL-5): 0.245 µM; CC50 (SK-MEL-5; [1]): 28.8 µM; GI50 (NCI-H522): 0.0759 µM; CC50 (NCI-H522; [1]): 3.39 µM
COc1cc(CC(O)c2ccc3ccccc3c2)cc(OC)c1OC (stereo not given) | 2.95 | 2.95 | 2.95 | 2.95 | –
COc1cc(CC(=O)c2ccco2)cc(OC)c1OC | > 100 | > 100 | > 100 | > 100 | –
COc1cc(CC(=O)c2ccc(C)o2)cc(OC)c1OC | 17.4 | 8.71 | 8.71 | 17.4 | –
COc1cc(CC(O)c2ccc3c(c2)OCO3)cc(OC)c1OC (stereo not given) | > 100 | > 100 | > 100 | > 100 | –
COc1cc(CCc2ccco2)cc(OC)c1OC | 19.1 | 19.1 | 19.1 | 19.1 | –
COc1cc(CC(O)c2ccco2)cc(OC)c1OC (stereo not given) | 36.3 | 36.3 | 18.2 | 36.3 | –
COc1cc(CCc2ccoc2)cc(OC)c1OC | > 100 | > 100 | > 100 | > 100 | –
COc1cc(CCc2ccc(C)o2)cc(OC)c1OC | 7.24 | 7.24 | 7.24 | 7.24 | –
COc1cc(CC(=O)c2ccc3ccccc3c2)cc(OC)c1OC | 15.1 | 15.1 | 15.1 | 30.2 | –
COc1ccc2[nH]c(-c3ccc4ccccc4c3)c(-c3cc(OC)c(OC)c(OC)c3)c2c1 | 1.12 | 1.12 | 1.12 | 2.24 | –
COc1cc(CCc2ccc3ccccc3c2)cc(OC)c1OC | – | 0.302 | – | – | –
